US10918687B2, “Kava derived therapeutic compounds and methods of use thereof” (KUALITY HERBCEUTICS LLC, priority 2013, dated 2021)
Where “and” joins values, the source holds several entries; their conditions need not be identical. Identical values can stand only once.

Columns and labels:
[1] = tested on: NNK-induced lung tumorigenesis; assay: NNK-induced lung adenoma formation in A/J mice; format: in vivo; details: for reduction of adenoma multiplicity / reduction of adenoma incidence / adenoma multiplicity: Example 4, Day 119; for adenoma multiplicity: NNK control 13.9±6.9; for minimum effective dose: dietary dose against NNK-induced lung adenoma formation
Protocol: Female A/J mice, 5-6 weeks of age from the Jackson Laboratory (Bar Harbor, Me.), were handled according to animal welfare protocols approved by IACUC at the University of Minnesota. […] After one-week acclimation, mice were weighed, randomized into different groups and switched to AIN-93G-powdered diet, defined as Day 1. The number of mice in each group was specified in the Result Section. On Day 7 and Day 14, mice in the negative control groups received 0.1 mL physiological saline solution while mice in the other groups received NNK (100 and 67 mg/kg respectively in 0.1 mL of physiological saline solution) via i.p. injection. At the end of Day 21, mice were switched to AIN-93M-powdered diet until the end of the study. Diet consumption was measured twice weekly and bodyweight was monitored weekly. All mice were euthanized with an overdose of carbon dioxide. The lungs were collected and tumors on the surface of the lung were counted.
Data on lung adenoma multiplicity were reported as mean±SD (n=5-40). […] For Experiment 2, unpaired t-test was used for comparison between NNK control and kava treatment groups. Two-sided p-value≤0.05 was considered statistically significant. Data on DNA adducts were reported as mean±SD (n=3). For the time-course study, unpaired […] was used for comparisons between NNK control and kava treatment groups. Two-sided p-value≤0.05 was considered statistically significant: *p<0.05, **p<0.01, and ***p<0.001. For the 24-h time point study, one-way ANOVA was used to compare means.
After one-week acclimation, mice were weighed, randomized into eight groups and switched to the AIN-93 G diet on a date defined as Day 1. The number of mice in each group is specified in the Results Section (FIG. 36). Mice were fed diets supplemented with different compounds at the dose specified in the Results Section during Day 1-Day 14. On Day 7 and Day 14, mice in the negative control group received 0.1 mL of saline solution while mice in the other groups received NNK (100 and 67 mg/kg, respectively, in 0.1 mL of saline solution) via i.p. injection. At the end of Day 21, mice were switched to the AIN-93 M diet until the end of the study. The diet was replenished twice weekly. The diet consumption was measured twice weekly and the bodyweight was monitored weekly. This study was terminated at the end of Day 119. All mice were euthanized with CO2 overdosing.

[2] = A/J mouse safety upon 17-week continuous exposure of (+)-DHM; format: in vivo, A/J mice; details: for adverse effects: 0.5 mg/g of diet (at least 10x minimum effective dose)
Protocol: After one-week acclimation, A/J mice were weighed and randomized into two groups (five mice in the control group and ten mice in (+)-DHM treatment group). Mice in the control group were maintained on the AIN-93 G diet for three weeks and then switched to the AIN-93 M diet until the end of Week 17. Mice in (+)-DHM treatment group were maintained on the same diet as the control group with supplementation of (+)-DHM at a dose of 0.5 mg/g of diet. Food was replenished twice weekly. Food intake was monitored twice a week and mouse bodyweight was monitored once a week. At the end of Week 8, serum samples from each mouse were prepared from blood collected via a facial vein and analyzed for a panel of clinical chemistry analytes. At the end of Week 17, mice were euthanized by CO2 overdosing. Blood was collected with one portion analyzed for hematology and the other portion processed for serum and analyzed for a full panel of clinical chemistry analytes. Individual animal body weights and major organ weights (lung, liver, heart, spleen and kidney) were recorded. Lung, liver, heart, spleen, kidney and pancreas were fixed in 10% neutral-buffered formalin solution.

[3] = 0.5 mg/g of diet, Week 17, data not shown

COC1=CC(=O)O[C@@H](CCc2ccc3c(c2)OCO3)C1 [(+)-DHM, (+)-dihydromethysticin]
reduction of adenoma multiplicity ([1]; 0.05 mg/g of diet (50 ppm) Day 1-Day 14): 97% and 97.1%
reduction of adenoma incidence ([1]; 0.05 mg/g of diet Day 1-Day 14): 40%
adenoma multiplicity ([1]; 0.05 mg/g of diet Day 1-Day 14): 0.6±0.5 lung adenoma/mouse
reduction of adenoma incidence ([1]; 0.5 mg/g of diet Day 1-Day 14): 40%
reduction of adenoma multiplicity ([1]; 0.5 mg/g of diet Day 1-Day 14): 97.1%
adenoma multiplicity ([1]; 0.5 mg/g of diet Day 1-Day 14): 0.6±0.5 lung adenoma/mouse
minimum effective dose [1]: lower than 0.05 mg/g
adverse effects ([2]; 17 weeks): did not present with any adverse effects
food intake vs control ([2]; 0.5 mg/g of diet, 17 weeks): similar
weekly bodyweight vs control ([2]; 0.5 mg/g of diet, 17 weeks): none of the differences were statistically significant
full-panel hematology vs control ([2]; 0.5 mg/g of diet, Week 17): None of these parameters were significantly different
histopathological examination of liver, lung, heart, kidney, spleen and pancreas vs control [2, 3]: no significant differences
serum osmolality and anion gap vs control [2, 3]: no differences
final bodyweight and relative weights of five organs vs control ([2]; 0.5 mg/g of diet, Week 17, except for the lung tissues): not significantly different
relative lung weight vs control ([2]; 0.5 mg/g of diet, Week 17, excluding one control mouse with lung hemorrhage (p=0.10)): no significant differences
serum clinical chemistry (ALP, ALT, AST, BUN, albumin, total bilirubin, CK, glucose, cholesterol, amylase) vs control ([2]; 0.5 mg/g of diet, end of Week 8): No significant differences
serum clinical chemistry vs control ([2]; 0.5 mg/g of diet, end of Week 17): no significant differences

COC1=CC(=O)O[C@@H](CCc2ccc3c(c2)OCO3)C1 [DHM, dihydromethysticin]
minimum effective dose [1]: lower than 0.05 mg/g
adverse effects ([2]; 17 weeks): no adverse effects
